Data: patent publication US10023570B2 (Array BioPharma, Inc., priority 2015, dated 2018)
Like-named read-outs stand apart in the source and are kept apart here.

Experiments:
[1] = target: Kif5b-RET fusion protein in HEK-293 cells (Homo sapiens, UniProt P07949); experiment: cell-based
[2] = target: N-terminal GST tagged recombinant human RET cytoplasmic domain (aa 658-end), wild type RET kinase (Homo sapiens (Human), UniProt P07949); experiment: RET Enzyme Assay (HTRF KinEASE-TK), wild type RET; type: biochemical; conditions: wild type RET, 1 mM ATP
N-terminal GST tagged recombinant human RET cytoplasmic domain (aa 658-end), wild type RET kinase, sequence (P07949 658-1114): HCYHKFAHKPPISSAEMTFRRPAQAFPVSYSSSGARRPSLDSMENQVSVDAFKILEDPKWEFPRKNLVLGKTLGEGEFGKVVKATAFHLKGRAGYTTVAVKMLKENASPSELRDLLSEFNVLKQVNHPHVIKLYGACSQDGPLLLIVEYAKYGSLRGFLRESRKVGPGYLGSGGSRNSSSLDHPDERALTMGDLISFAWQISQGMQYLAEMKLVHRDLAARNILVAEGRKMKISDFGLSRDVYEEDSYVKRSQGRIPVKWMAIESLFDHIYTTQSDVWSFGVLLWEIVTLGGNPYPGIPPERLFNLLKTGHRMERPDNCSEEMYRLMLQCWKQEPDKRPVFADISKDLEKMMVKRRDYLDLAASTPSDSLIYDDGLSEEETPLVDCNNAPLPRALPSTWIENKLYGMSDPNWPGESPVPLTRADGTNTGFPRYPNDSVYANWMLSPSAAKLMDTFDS

[3] = target: human KDR protein in HEK-293 cells (Homo sapiens (Human), UniProt P35968); experiment: KDR Cell Assay (phospho-KDR in HEK-293 cells expressing inducible KDR); type: cell-based; conditions: pKDR Cell HEK 10% FBS IC50, HEK-293 cells expressing inducible KDR, VEGF stimulated
human KDR protein in HEK-293 cells, sequence (P35968 20-1356): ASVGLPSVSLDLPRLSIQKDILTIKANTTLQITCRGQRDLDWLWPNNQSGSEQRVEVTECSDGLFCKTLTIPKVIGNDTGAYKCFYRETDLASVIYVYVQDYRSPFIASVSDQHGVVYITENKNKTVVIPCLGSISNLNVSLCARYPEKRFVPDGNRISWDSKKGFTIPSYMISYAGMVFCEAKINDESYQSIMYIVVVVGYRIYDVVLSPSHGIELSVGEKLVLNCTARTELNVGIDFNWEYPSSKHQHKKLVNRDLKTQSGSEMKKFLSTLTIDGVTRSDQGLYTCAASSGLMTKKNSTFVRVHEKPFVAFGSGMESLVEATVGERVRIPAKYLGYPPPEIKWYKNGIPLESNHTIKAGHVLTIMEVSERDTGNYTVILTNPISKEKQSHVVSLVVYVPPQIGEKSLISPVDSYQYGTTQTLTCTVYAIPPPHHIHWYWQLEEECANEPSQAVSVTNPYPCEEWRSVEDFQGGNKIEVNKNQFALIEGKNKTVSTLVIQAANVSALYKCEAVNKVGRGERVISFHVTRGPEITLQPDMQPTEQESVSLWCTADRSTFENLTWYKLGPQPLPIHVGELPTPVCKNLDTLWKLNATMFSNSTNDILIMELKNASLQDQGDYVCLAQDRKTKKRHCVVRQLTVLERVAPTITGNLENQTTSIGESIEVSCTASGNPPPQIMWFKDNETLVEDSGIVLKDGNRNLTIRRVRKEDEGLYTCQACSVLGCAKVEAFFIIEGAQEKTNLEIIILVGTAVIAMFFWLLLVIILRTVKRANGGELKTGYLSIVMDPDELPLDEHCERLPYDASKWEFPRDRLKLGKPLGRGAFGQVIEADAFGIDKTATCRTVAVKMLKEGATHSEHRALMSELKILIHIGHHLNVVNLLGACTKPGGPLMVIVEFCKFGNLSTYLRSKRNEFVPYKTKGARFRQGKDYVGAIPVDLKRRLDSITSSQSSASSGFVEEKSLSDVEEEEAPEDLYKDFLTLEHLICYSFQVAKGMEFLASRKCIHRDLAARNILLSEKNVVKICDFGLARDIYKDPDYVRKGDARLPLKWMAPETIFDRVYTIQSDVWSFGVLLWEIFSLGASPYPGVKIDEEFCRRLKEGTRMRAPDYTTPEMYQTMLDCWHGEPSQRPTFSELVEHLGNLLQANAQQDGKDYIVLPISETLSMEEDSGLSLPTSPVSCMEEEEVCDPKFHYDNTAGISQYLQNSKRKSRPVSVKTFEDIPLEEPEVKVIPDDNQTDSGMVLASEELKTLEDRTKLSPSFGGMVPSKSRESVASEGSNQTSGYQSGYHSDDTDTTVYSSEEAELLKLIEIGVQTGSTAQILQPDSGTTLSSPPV
Outline: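 HEK-293 cells with inducible human KDR were treated with compound for 1 h in DMEM (0.25% DMSO final), then lysed. Phospho-KDR was quantified by Meso Scale immunoassay, expressed as percent of control, and IC50 taken where a 4-parameter logistic fit crossed 50 POC.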

[4] = HEK-293 cells expressing Kif5b-RET, read-out: KIF5B-RET pTYR1062 Cell IC50
[5] = HEK-293 cells expressing Kif5b-RET, phospho-RET(Tyr1062), read-out: KIF5B-RET pTYR1062 Cell IC50

Kif5b-RET fusion protein in HEK-293 cells, sequence (P07949 29-1114 limits assumed): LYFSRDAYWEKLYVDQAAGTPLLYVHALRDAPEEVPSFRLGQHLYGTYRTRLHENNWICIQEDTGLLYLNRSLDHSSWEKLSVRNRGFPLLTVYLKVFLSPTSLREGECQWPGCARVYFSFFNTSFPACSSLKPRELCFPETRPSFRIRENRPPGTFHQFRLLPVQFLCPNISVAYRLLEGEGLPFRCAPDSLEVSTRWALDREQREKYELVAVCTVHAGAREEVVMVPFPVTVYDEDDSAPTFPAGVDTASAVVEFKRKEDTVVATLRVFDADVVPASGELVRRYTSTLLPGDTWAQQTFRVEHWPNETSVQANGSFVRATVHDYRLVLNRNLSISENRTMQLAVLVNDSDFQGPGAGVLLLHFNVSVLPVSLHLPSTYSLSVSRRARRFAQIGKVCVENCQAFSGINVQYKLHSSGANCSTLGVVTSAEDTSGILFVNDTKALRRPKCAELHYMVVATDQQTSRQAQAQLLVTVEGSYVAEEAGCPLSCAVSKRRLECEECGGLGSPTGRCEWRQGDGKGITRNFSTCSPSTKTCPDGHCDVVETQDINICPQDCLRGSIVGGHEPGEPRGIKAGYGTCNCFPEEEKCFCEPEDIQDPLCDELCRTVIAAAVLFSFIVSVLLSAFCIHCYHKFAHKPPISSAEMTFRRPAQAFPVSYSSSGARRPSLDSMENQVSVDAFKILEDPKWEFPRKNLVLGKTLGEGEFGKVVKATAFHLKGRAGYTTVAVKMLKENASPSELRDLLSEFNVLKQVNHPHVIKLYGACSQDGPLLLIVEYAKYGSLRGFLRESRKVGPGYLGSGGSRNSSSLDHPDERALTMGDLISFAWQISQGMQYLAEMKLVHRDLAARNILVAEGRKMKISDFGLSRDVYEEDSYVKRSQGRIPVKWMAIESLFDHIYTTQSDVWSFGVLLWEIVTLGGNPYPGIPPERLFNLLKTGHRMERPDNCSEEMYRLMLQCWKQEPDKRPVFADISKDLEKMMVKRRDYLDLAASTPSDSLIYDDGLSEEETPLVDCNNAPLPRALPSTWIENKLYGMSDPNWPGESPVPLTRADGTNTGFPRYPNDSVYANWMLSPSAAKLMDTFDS

Structure (SMILES)	IC50 [1, 4]	IC50 [2]	IC50 [3]	IC50 [1, 5]	IC50 ([3]; 10% FBS)	IC50 [1]
CCCC(=O)N1CCN(c2ccc(-c3cc(-c4cnn(C)c4)cn4ncc(C#N)c34)cn2)CC1 [Example 70, 4-(6-(4-butyrylpiperazin-1-yl)pyridin-3-yl)-6-(1-methyl-1H-pyrazol-4-yl)pyrazolo[1,5-a]pyridine-3-carbonitrile]	–	0.0084 µM	–	0.0185 µM	0.51 µM	–
Cn1cc(-c2cc(-c3ccc(N4CCN(C(=O)[C@H](O)C(F)(F)F)CC4)nc3)c3c(C#N)cnn3c2)cn1 [Example 61, (S)-6-(1-methyl-1H-pyrazol-4-yl)-4-(6-(4-(3,3,3-trifluoro-2-hydroxypropanoyl)piperazin-1-yl)pyridin-3-yl)pyrazolo[1,5-a]pyridine-3-carbonitrile]	–	0.0055 µM	–	0.0055 µM	0.148 µM	–
CCn1cc(-c2cc(-c3ccc(N4CCN(Cc5ccccc5)CC4)nc3)c3c(C#N)cnn3c2)c(C)n1 [Example 609, 4-(6-(4-benzylpiperazin-1-yl)pyridin-3-yl)-6-(1-ethyl-3-methyl-1H-pyrazol-4-yl)pyrazolo[1,5-a]pyridine-3-carbonitrile]	–	0.0165 µM	1.98 µM	–	–	0.0315 µM
CCN(C)C(=O)N1CCN(c2ccc(-c3cc(-c4cnn(C)c4)cn4ncc(C#N)c34)cn2)CC1 [Example 136, 4-(5-(3-cyano-6-(1-methyl-1H-pyrazol-4-yl)pyrazolo[1,5-a]pyridin-4-yl)pyridin-2-yl)-N-ethyl-N-methylpiperazine-1-carboxamide]	–	0.0091 µM	–	0.0119 µM	1.58 µM	–
Cn1cc(-c2cc(-c3ccc(N4CCN(C(=O)C(C)(F)F)CC4)nc3)c3c(C#N)cnn3c2)cn1 [Example 59, 4-(6-(4-(2,2-difluoropropanoyl)piperazin-1-yl)pyridin-3-yl)-6-(1-methyl-1H-pyrazol-4-yl)pyrazolo[1,5-a]pyridine-3-carbonitrile]	–	0.0163 µM	–	0.0266 µM	0.554 µM	–
CC[C@H](CO)NC(=O)N1CCN(c2ccc(-c3cc(-c4cnn(C)c4)cn4ncc(C#N)c34)cn2)CC1 [Example 96, (R)-4-(5-(3-cyano-6-(1-methyl-1H-pyrazol-4-yl)pyrazolo[1,5-a]pyridin-4-yl)pyridin-2-yl)-N-(1-hydroxybutan-2-yl)piperazine-1-carboxamide]	–	0.0063 µM	–	0.0519 µM	1.56 µM	–
CCC(=O)N1CCN(c2ccc(-c3cc(-c4cnn(C)c4)cn4ncc(C#N)c34)cn2)CC1 [Example 67, 6-(1-methyl-1H-pyrazol-4-yl)-4-(6-(4-propionylpiperazin-1-yl)pyridin-3-yl)pyrazolo[1,5-a]pyridine-3-carbonitrile]	–	0.0194 µM	–	0.0607 µM	0.521 µM	–

The next lines start with results.

IC50 [1, 4]	IC50 [2]	IC50 [3]	IC50 [1, 5]	IC50 ([3]; 10% FBS)	Structure (SMILES)	IC50 [1]
0.0182 µM	0.0216 µM	2.13 µM	–	–	CO[C@H](C)CN1CCN(c2ccc(-c3cc(-c4cnn(C)c4)cn4ncc(C#N)c34)cn2)CC1 [Example 412, (R)-4-(6-(4-(2-methoxypropyl)piperazin-1-yl)pyridin-3-yl)-6-(1-methyl-1H-pyrazol-4-yl)pyrazolo[1,5-a]pyridine-3-carbonitrile]	–
–	0.012 µM	–	0.0136 µM	0.949 µM	CC(C)NC(=O)C1CCN(c2ccc(-c3cc(-c4cnn(C)c4)cn4ncc(C#N)c34)cn2)CC1 [Example 246, 1-(5-(3-cyano-6-(1-methyl-1H-pyrazol-4-yl)pyrazolo[1,5-a]pyridin-4-yl)pyridin-2-yl)-N-isopropylpiperidine-4-carboxamide]	–
0.0052 µM	0.0382 µM	0.431 µM	–	–	CC(C)Cn1cc(-c2cc(-c3ccc(N4CCN(Cc5ccccc5)CC4)nc3)c3c(C#N)cnn3c2)cn1 [Example 612, 4-(6-(4-benzylpiperazin-1-yl)pyridin-3-yl)-6-(1-isobutyl-1H-pyrazol-4-yl)pyrazolo[1,5-a]pyridine-3-carbonitrile]	–
–	0.0116 µM	–	0.0048 µM	0.656 µM	COCC(C)NC(=O)C1(C)CCN(c2ccc(-c3cc(-c4cnn(C)c4)cn4ncc(C#N)c34)cn2)CC1 (stereo not drawn) [Example 252, 1-(5-(3-cyano-6-(1-methyl-1H-pyrazol-4-yl)pyrazolo[1,5-a]pyridin-4-yl)pyridin-2-yl)-N-(1-methoxypropan-2-yl)-4-methylpiperidine-4-carboxamide]	–
0.0186 µM	0.0111 µM	1.3 µM	–	–	Cn1cc(-c2cc(-c3ccc(N4CCN(CCOC(F)(F)F)CC4)nc3)c3c(C#N)cnn3c2)cn1 [Example 398, 6-(1-methyl-1H-pyrazol-4-yl)-4-(6-(4-(2-(trifluoromethoxy)ethyl)piperazin-1-yl)pyridin-3-yl)pyrazolo[1,5-a]pyridine-3-carbonitrile]	–
0.0156 µM	0.0052 µM	≥ 5 µM	–	–	N#Cc1cnn2cc(-c3cnn(C(F)F)c3)cc(-c3ccc(N4CCN(Cc5ccccn5)CC4)nc3)c12 [Example 586, 6-(1-(difluoromethyl)-1H-pyrazol-4-yl)-4-(6-(4-(pyridine-2-ylmethyl)piperazin-1-yl)pyridin-3-yl)pyrazolo[1,5-a]pyridine-3-carbonitrile]	–
